# System: Human Monocytic Leukemia MV4-11
# Assay: Cell proliferation experiment (Alarm blue, 72 h, EC50)
# Type: cell-based
# Details: Homo sapiens, MV4-11, MV4;11 cells
# Procedure: (2.1) Cell Proliferation Experiment:
# Reagents: RPMI-1640 medium, McCoy's 5A medium, IMDM medium, MEM medium, L-15 medium, fetal bovine serum, Penicillin-Streptomycin double antibody, trypsin, etc., 2-mercaptoethanol, NEAA, pyruvate, etc.
# The cells were cultured in conventional ways, and the cells should be passed at least for at least 2 generations before plating. Cells at the logarithmic growth phase are collected, prepared into single cell suspensions and counted. The concentration of cells was adjusted to the desired concentration, and cells were inoculated into a 96-well cell culture plate at 100 μl per well. 100 μL of complete medium of the test compound were added to each well, set up 2 duplicates for each concentration, and diluted with a 5-fold gradient, and continue to culture for 72 h. All cells were subjected to EC50 test for corresponding samples.
# The fluorescence intensity of each well was detected using the Alarm blue method, and EC50 was calculated.
# EC50 was calculated according to the following formula:
# Y=Max+(Min−Max)/[1+(X/EC50)×Slope]
# wherein Min, Max and Slope represent the minimum, maximum and slope respectively.
row,EC50 [nM],SMILES
1,< 10,CC[C@@H]1C(=O)N(C)c2cnc(Nc3ccc(C(=O)NCc4cn(CCN(C)CCCC(=O)Nc5cccc6c5CN(C5CCC(=O)NC5=O)C6=O)nn4)cc3OC)nc2N1C1CCCC1 (stereo partly shown) [UB-180716]
2,100 to 1000,CC[C@@H]1c2c(C#N)ncn2-c2cnc(Nc3ccc(C(=O)NC4CCN(CCCCC(=O)N[C@H](C(=O)N5C[C@H](O)C[C@H]5C(=O)NCc5ccc(-c6scnc6C)cc5)C(C)(C)C)CC4)cc3OC)nc2N1C1CCCC1 [UB-180591]
3,> 1000,Cc1ncsc1-c1ccc(CNC(=O)[C@@H]2C[C@@H](O)CN2C(=O)[C@@H](NC(=O)CCNC(=O)[C@]2(Cc3cccc(Nc4nccs4)n3)CC[C@@H](Oc3cccc(Cl)c3F)CC2)C(C)(C)C)cc1 [UB-180614]
4,> 1000,O=C1CCC(N2Cc3c(NC(=O)CCCCNCCOCCOCCOCCNC(=O)[C@]4(Cc5cccc(Nc6nccs6)n5)CC[C@@H](Oc5cccc(Cl)c5F)CC4)cccc3C2=O)C(=O)N1 (stereo partly shown) [UB-180778]
5,10 to 100,CC[C@@H]1C(=O)N(C)c2cnc(Nc3ccc(C(=O)NC4CCN(CCOCCNCC(=O)Nc5cccc6c5CN(C5CCC(=O)NC5=O)C6=O)C4)cc3OC)nc2N1C1CCCC1 (stereo partly shown) [UB-180713]
6,10 to 100,CC[C@@H]1C(=O)N(C)c2cnc(Nc3ccc(C(=O)NCCCNCCOCC(=O)Nc4cccc5c4CN(C4CCC(=O)NC4=O)C5=O)cc3OC)nc2N1C1CCCC1 (stereo partly shown) [UB-180698]
7,> 1000,O=C1CCC(N2Cc3c(NC(=O)CCOCCOCCOCCNCCNC(=O)[C@]4(Cc5cccc(Nc6nccs6)n5)CC[C@@H](Oc5cccc(Cl)c5F)CC4)cccc3C2=O)C(=O)N1 (stereo partly shown) [UB-180797]
8,100 to 1000,O=C1CCC(N2Cc3c(NC(=O)COCCOCCOCCNCCOCCNC(=O)c4ccc(Nc5ncc6c(n5)-c5ccc(Cl)cc5C(c5c(F)cccc5F)=NC6)cc4)cccc3C2=O)C(=O)N1 (stereo not shown) [UB-180798]
9,100 to 1000,O=C1CCC(N2Cc3c(NC(=O)CCCNCCOCCOCCOCCNC(=O)c4ccc(Nc5ncc6c(n5)-c5ccc(Cl)cc5C(c5c(F)cccc5F)=NC6)cc4)cccc3C2=O)C(=O)N1 (stereo not shown) [UB-180773]
10,100 to 1000,CC[C@@H]1c2c(C#N)ncn2-c2cnc(Nc3ccc(C(=O)NCCNc4cccc5c4CN(C4CCC(=O)NC4=O)C5=O)cc3OC)nc2N1C1CCCC1 (stereo partly shown) [UB-180608]
11,10 to 100,CC[C@@H]1C(=O)N(C)c2cnc(Nc3ccc(C(=O)NCCOCCOCCOCCNCCC(=O)Nc4cccc5c4CN(C4CCC(=O)NC4=O)C5=O)cc3OC)nc2N1C(C)C (stereo partly shown) [UB-180710]
12,> 1000,O=C1CCC(N2Cc3c(NC(=O)CCCCNCCOCCOCCOCCNC(=O)c4ccc(Nc5ncc6c(n5)-c5ccc(Cl)cc5C(c5c(F)cccc5F)=NC6)cc4)cccc3C2=O)C(=O)N1 (stereo not shown) [UB-180772]
13,10 to 100,CC[C@@H]1C(=O)N(C)c2cnc(Nc3ccc(C(=O)NCCC(=O)N[C@H](C(=O)N4C[C@H](O)C[C@H]4C(=O)NCc4ccc(-c5scnc5C)cc4)C(C)(C)C)cc3OC)nc2N1C1CCCC1 [UB-180622]
14,> 1000,CC[C@@H]1c2c(C#N)ncn2-c2cnc(Nc3ccc(C(=O)NC4CCN(CCCCCOCC(=O)N[C@H](C(=O)N5C[C@H](O)C[C@H]5C(=O)NCc5ccc(-c6scnc6C)cc5)C(C)(C)C)CC4)cc3OC)nc2N1C1CCCC1 [UB-180597]
15,100 to 1000,CC[C@@H]1c2c(C#N)ncn2-c2cnc(Nc3ccc(C(=O)NCc4cn(CCNCCC(=O)Nc5cccc6c5CN(C5CCC(=O)NC5=O)C6=O)nn4)cc3OC)nc2N1C1CCCC1 (stereo partly shown) [UB-180723]
16,100 to 1000,Cc1ncsc1-c1ccc(CNC(=O)[C@@H]2C[C@@H](O)CN2C(=O)[C@@H](NC(=O)CNCCOCCOCCOCCNC(=O)c2ccc(Nc3ncc4c(n3)-c3ccc(Cl)cc3C(c3c(F)cccc3F)=NC4)cc2)C(C)(C)C)cc1 [UB-180781]
17,100 to 1000,O=C1CCC(N2Cc3c(NC(=O)CNCCOCCN4CCC(NC(=O)[C@]5(Cc6cccc(Nc7nccs7)n6)CC[C@@H](Oc6cccc(Cl)c6F)CC5)CC4)cccc3C2=O)C(=O)N1 (stereo partly shown) [UB-180736]
18,100 to 1000,O=C1CCC(N2Cc3c(NC(=O)CCOCCNCCN4CCC(NC(=O)c5ccc(Nc6ncc7c(n6)-c6ccc(Cl)cc6C(c6c(F)cccc6F)=NC7)cc5)CC4)cccc3C2=O)C(=O)N1 (stereo not shown) [UB-180768]
19,> 1000,O=C1CCC(N2Cc3c(NC(=O)COCCNCCN4CCC(NC(=O)[C@]5(Cc6cccc(Nc7nccs7)n6)CC[C@@H](Oc6cccc(Cl)c6F)CC5)CC4)cccc3C2=O)C(=O)N1 (stereo partly shown) [UB-180741]
20,100 to 1000,COc1cc(C(=O)NCCCNCCCC(=O)Nc2cccc3c2CN(C2CCC(=O)NC2=O)C3=O)ccc1Nc1ncc2c(n1)N(Cc1ccc(Br)cc1)CC(C)(C)C(=O)N2C (stereo not shown) [UB-180677]

row,EC50 [nM],SMILES
1,10 to 100,Cc1ncsc1-c1ccc(CNC(=O)[C@@H]2C[C@@H](O)CN2C(=O)[C@@H](NC(=O)CCOCCOCCOCCOCCNC(=O)c2ccc(Nc3ncc4c(n3)-c3ccc(Cl)cc3C(c3c(F)cccc3F)=NC4)cc2)C(C)(C)C)cc1 [UB-180531]
2,100 to 1000,O=C1CCC(N2Cc3c(NC(=O)CCNCCn4cc(CNC(=O)c5ccc(Nc6ncc7c(n6)-c6ccc(Cl)cc6C(c6c(F)cccc6F)=NC7)cc5)nn4)cccc3C2=O)C(=O)N1 (stereo not shown) [UB-180726]
3,10 to 100,CC[C@@H]1C(=O)N(C)c2cnc(Nc3ccc(C(=O)NC4CCN(CCNCCCCC(=O)Nc5cccc6c5CN(C5CCC(=O)NC5=O)C6=O)CC4)cc3OC)nc2N1C1CCCC1 (stereo partly shown) [UB-180684]
4,100 to 1000,CC[C@@H]1c2c(C#N)ncn2-c2cnc(Nc3ccc(C(=O)NCCCNc4cccc5c4C(=O)N(C4CCC(=O)NC4=O)C5=O)cc3OC)nc2N1C1CCCC1 (stereo partly shown) [UB-180593]
5,100 to 1000,O=C1CCC(N2Cc3c(NC(=O)CCOCCOCCOCCNCCOCCNC(=O)c4ccc(Nc5ncc6c(n5)-c5ccc(Cl)cc5C(c5c(F)cccc5F)=NC6)cc4)cccc3C2=O)C(=O)N1 (stereo not shown) [UB-180803]
6,10 to 100,CC[C@@H]1c2c(C#N)ncn2-c2cnc(Nc3ccc(C(=O)NCCNc4cccc5c4C(=O)N(C4CCC(=O)NC4=O)C5=O)cc3OC)nc2N1C1CCCC1 (stereo partly shown) [UB-180607]
7,> 1000,Cc1ncsc1-c1ccc(CNC(=O)[C@@H]2C[C@@H](O)CN2C(=O)[C@@H](NC(=O)COCCCCNC(=O)[C@]2(Cc3cccc(Nc4nccs4)n3)CC[C@@H](Oc3cccc(Cl)c3F)CC2)C(C)(C)C)cc1 [UB-180589]
8,100 to 1000,COc1cc(C(=O)NCCCNCCCCCCCC(=O)Nc2cccc3c2CN(C2CCC(=O)NC2=O)C3=O)ccc1Nc1ncc2c(n1)N(Cc1ccc(Br)cc1)CC(C)(C)C(=O)N2C (stereo not shown) [UB-180671]
9,100 to 1000,O=C1CCC(N2Cc3c(NC(=O)CNCCOCCN4CCC(NC(=O)c5ccc(Nc6ncc7c(n6)-c6ccc(Cl)cc6C(c6c(F)cccc6F)=NC7)cc5)CC4)cccc3C2=O)C(=O)N1 (stereo not shown) [UB-180735]
10,10 to 100,CC[C@@H]1C(=O)N(C)c2cnc(Nc3ccc(C(=O)NCCNCCCC(=O)Nc4cccc5c4CN(C4CCC(=O)NC4=O)C5=O)cc3OC)nc2N1Cc1ccc(Br)cc1 (stereo partly shown) [UB-180690]
11,100 to 1000,CC[C@@H]1C(=O)N(C)c2cnc(Nc3ccc(C(=O)NC4(C(=O)Nc5cccc6c5CN(C5CCC(=O)NC5=O)C6=O)CC4)cc3OC)nc2N1C1CCCC1 (stereo partly shown) [UB-180571]
12,100 to 1000,O=C1CCC(N2Cc3c(NC(=O)CCNCCn4cc(CNC(=O)[C@]5(Cc6cccc(Nc7nccs7)n6)CC[C@@H](Oc6cccc(Cl)c6F)CC5)nn4)cccc3C2=O)C(=O)N1 (stereo partly shown) [UB-180729]
13,100 to 1000,Cc1ncsc1-c1ccc(CNC(=O)[C@@H]2C[C@@H](O)CN2C(=O)[C@@H](NC(=O)CCOCCOCCNC(=O)c2ccc(Nc3ncc4c(n3)-c3ccc(Cl)cc3C(c3c(F)cccc3F)=NC4)cc2)C(C)(C)C)cc1 [UB-180536]
14,> 1000,Cc1ncsc1-c1ccc(CNC(=O)[C@@H]2C[C@@H](O)CN2C(=O)[C@@H](NC(=O)CCNCCOCCn2cc(CNC(=O)c3ccc(Nc4ncc5c(n4)-c4ccc(Cl)cc4C(c4c(F)cccc4F)=NC5)cc3)nn2)C(C)(C)C)cc1 [UB-180784]
15,100 to 1000,Cc1ncsc1-c1ccc(CNC(=O)[C@@H]2C[C@@H](O)CN2C(=O)[C@@H](NC(=O)CCNC(=O)c2ccc(Nc3ncc4c(n3)-c3ccc(Cl)cc3C(c3c(F)cccc3F)=NC4)cc2)C(C)(C)C)cc1 [UB-180613]
16,10 to 100,CC[C@@H]1C(=O)N(C)c2cnc(Nc3ccc(C(=O)NC4CCN(CCOCCN(CC(=O)Nc5cccc6c5CN(C5CCC(=O)NC5=O)C6=O)C(=O)OC)CC4)cc3OC)nc2N1C1CCCC1 (stereo partly shown) [UB-180833]
17,> 1000,Cc1ncsc1-c1ccc(CNC(=O)[C@@H]2C[C@@H](O)CN2C(=O)[C@@H](NC(=O)CCNCCOCCn2cc(CNC(=O)[C@]3(Cc4cccc(Nc5nccs5)n4)CC[C@@H](Oc4cccc(Cl)c4F)CC3)nn2)C(C)(C)C)cc1 [UB-180785]
18,> 1000,Cc1ncsc1-c1ccc(CNC(=O)[C@@H]2C[C@@H](O)CN2C(=O)[C@@H](NC(=O)COCCNCCn2cc(COCCOCCOCCNC(=O)[C@]3(Cc4cccc(Nc5nccs5)n4)CC[C@@H](Oc4cccc(Cl)c4F)CC3)nn2)C(C)(C)C)cc1 [UB-180791]
19,100 to 1000,O=C1CCC(N2Cc3c(NC(=O)CCNCCOCCOCCNC(=O)c4ccc(Nc5ncc6c(n5)-c5ccc(Cl)cc5C(c5c(F)cccc5F)=NC6)cc4)cccc3C2=O)C(=O)N1 (stereo not shown) [UB-180777]
20,10 to 100,CC[C@@H]1C(=O)N(C)c2cnc(Nc3ccc(C(=O)NCCOCCOCCNCC(=O)Nc4cccc5c4CN(C4CCC(=O)NC4=O)C5=O)cc3OC)nc2N1C1CCCC1 (stereo partly shown) [UB-180814]

# Same assay, conditions: MV4;11 cells
row,EC50 [nM],SMILES
1,100 to 1000,O=C1CCC(N2Cc3c(NC(=O)CNCCOCCN4CCN(CCNC(=O)[C@]5(Cc6cccc(Nc7nccs7)n6)CC[C@@H](Oc6cccc(Cl)c6F)CC5)CC4)cccc3C2=O)C(=O)N1 (stereo partly shown) [UB-180812]
2,> 1000,O=C1CCC(N2Cc3c(NC(=O)CCNCCOCCn4cc(CNC(=O)[C@]5(Cc6cccc(Nc7nccs7)n6)CC[C@@H](Oc6cccc(Cl)c6F)CC5)nn4)cccc3C2=O)C(=O)N1 (stereo partly shown) [UB-180739]
3,100 to 1000,O=C1CCC(N2Cc3c(NC(=O)CCNCCOCCn4cc(CNC(=O)[C@]5(Cc6cccc(Nc7nccs7)n6)CC[C@@H](Oc6cccc(Cl)c6F)CC5)nn4)cccc3C2=O)C(=O)N1 (stereo partly shown) [UB-180749]
